Results as given in US6489297B1, “Vasoactive intestinal peptide analogs” (Dabur Research Foundation, priority 2000, dated 2002).
Where a SMILES comes first, the peptide text is derived from it. [ ]: non-standard residue; d: D form. dPhe(4-Cl) = N[C@H](Cc1ccc(Cl)cc1)C(=O)O; Dpg = CCCC(N)(CCC)C(=O)O; Ac5c = NC1(C(=O)O)CCCC1; Aib = CC(C)(N)C(=O)O

Tests used:
Type in all cases: cell-based, human
Settings in all cases: 72 hours
[1] = system: SW620 (colon); assay: MTT cytotoxicity assay, SW620 cells
Method: (§1) The cytotoxic activity of synthesized peptides was tested on […] human tumor cell lines namely PA-1 (ovary), SW620 (colon) HuTu80 (duodenum), L132 (lung), U87MG (glioblastoma), KB (oral), MIAPaCa2(pancreas), A549(non small cell lung) and HT-29(colon). The tumor cells were collected at exponential growth phase and resuspended in medium (1.5×10^6 cells/ml in RPMI 1640 containing 10% FBS). 150 μl of medium was added to the wells of a 96-well tissue culture plate (Nunc, Denmark) followed by 30 μl of cell suspension. The plate was left in incubator (37° C., 5% CO2) overnight. 20 μl of the peptide (100 pM to 1 uM concentration) was added to marked wells of the 96-well plate. Each concentration was plated in triplicates. 20 μl of medium alone was added to control wells while wells without cells served as blanks. A total volume of 200 μl was ensured in each well and plate was left in incubator (37° C., 5% CO2). After 72 hours of incubation an MTT assay was performed and percentage cytotoxicity was calculated with respect to control cells. Following Tables show the maximum cytotoxicity achieved on various cell lines.

[2] = system: KB (oral); assay: MTT cytotoxicity assay, KB cells
Method: as §1

[3] = system: PA-1 (ovary); assay: MTT cytotoxicity assay, PA-1 cells
Method: as §1

[4] = system: L132 (lung); assay: MTT cytotoxicity assay, L132 cells
Method: as §1

[5] = system: U87MG (glioblastoma); assay: MTT cytotoxicity assay, U87MG cells
Method: as §1

[6] = system: HuTu80 (duodenum); assay: MTT cytotoxicity assay, HuTu80 cells
Method: as §1

Compound	Percentage cytotoxicity ([1]; SW620, 100 pM)	Percentage cytotoxicity ([1]; SW620, 1 nM)	Percentage cytotoxicity ([1]; SW620, 10 nM)	Percentage cytotoxicity ([1]; SW620, 100 nM)	Percentage cytotoxicity ([1]; SW620, 1 μM)	Percentage cytotoxicity ([2]; 100 pM)	Percentage cytotoxicity ([2]; 1 nM)	Percentage cytotoxicity ([2]; 10 nM)	Percentage cytotoxicity ([2]; 100 nM)	Percentage cytotoxicity ([2]; 1 μM)	Percentage cytotoxicity ([3]; PA1, 100 pM)	Percentage cytotoxicity ([3]; PA1, 1 nM)	Percentage cytotoxicity ([3]; PA1, 10 nM)	Percentage cytotoxicity ([3]; PA1, 100 nM)	Percentage cytotoxicity ([3]; PA1, 1 μM)	Percentage cytotoxicity ([4]; L132, 100 pM)	Percentage cytotoxicity ([4]; L132, 1 nM)	Percentage cytotoxicity ([4]; L132, 10 nM)	Percentage cytotoxicity ([4]; L132, 100 nM)	Percentage cytotoxicity ([4]; L132, 1 μM)	further results
CC[C@H](C)[C@H](NC(=O)[C@H](CO)NC(=O)[C@H](CC(N)=O)NC(=O)[C@H](CC(C)C)NC(=O)[C@H](Cc1ccc(O)cc1)NC(=O)[C@H](CCCCN)NC(=O)[C@H](CCCCN)NC(=O)[C@@H](NC(=O)[C@H](C)NC(=O)[C@H](CC(C)C)NC(=O)[C@H](CCC(N)=O)NC(=O)[C@H](CCCCN)NC(=O)[C@H](CCCNC(=N)N)NC(=O)[C@H](CC(C)C)NC(=O)[C@H](CCCNC(=N)N)NC(=O)[C@@H](NC(=O)[C@H](Cc1ccc(O)cc1)NC(=O)[C@H](CC(N)=O)NC(=O)[C@H](CC(=O)O)NC(=O)[C@@H](NC(=O)[C@@H](Cc1ccc(Cl)cc1)NC(=O)[C@@H](NC(=O)C1(NC(=O)[C@H](CC(=O)O)NC(=O)[C@H](CO)NC(=O)[C@@H](N)Cc2c[nH]cn2)CCCC1)C(C)C)[C@@H](C)O)[C@@H](C)O)C(C)C)C(=O)N[C@@H](CC(C)C)C(=O)N[C@@H](CC(N)=O)C(N)=O [SEQ ID NO: 4] (H-HSD[Ac5c]V[dPhe(4-Cl)]TDNYTRLRKQLAVKKYLNSILN-NH2)	16.9 ± 5.5%	31 ± 6.5%	28.5 ± 4.5%	23 ± 6.7%	15 ± 4.5%	13 ± 8.0%	30 ± 7.8%	27 ± 7.8%	26 ± 5.6%	27 ± 4.3%	16.1 ± 0.0%	30 ± 6.0%	23 ± 3.5%	22.3 ± 4.5%	21 ± 5.5%	11 ± 8.0%	27 ± 4.5%	30 ± 5.5%	28 ± 5.5%	13 ± 4.5%	Percentage cytotoxicity ([5]; 100 pM): 10 ± 4.6%; Percentage cytotoxicity ([5]; 1 nM): 15 ± 7.8%; Percentage cytotoxicity ([5]; 10 nM): 29 ± 6.7%; Percentage cytotoxicity ([5]; 100 nM): 28 ± 7.7%; Percentage cytotoxicity ([5]; 1 μM): 27 ± 5.5%; Percentage cytotoxicity ([6]; HuTu80, 100 pM): 11 ± 8.0%; Percentage cytotoxicity ([6]; HuTu80, 1 nM): 30 ± 7.0%; Percentage cytotoxicity ([6]; HuTu80, 10 nM): 27 ± 5.0%; Percentage cytotoxicity ([6]; HuTu80, 100 nM): 27 ± 7.9%; Percentage cytotoxicity ([6]; HuTu80, 1 μM): 15.5 ± 6.5%
CCCC(CCC)(NC(=O)[C@H](CCC(N)=O)NC(=O)[C@H](CCCCN)NC(=O)[C@H](CCCNC(=N)N)NC(=O)[C@H](CC(C)C)NC(=O)[C@H](CCCNC(=N)N)NC(=O)[C@@H](NC(=O)[C@H](Cc1ccc(O)cc1)NC(=O)[C@H](CC(N)=O)NC(=O)[C@H](CC(=O)O)NC(=O)[C@@H](NC(=O)[C@H](Cc1ccccc1)NC(=O)[C@@H](NC(=O)C(C)(C)NC(=O)[C@H](CC(=O)O)NC(=O)[C@H](CO)NC(=O)[C@@H](N)Cc1c[nH]cn1)C(C)C)[C@@H](C)O)[C@@H](C)O)C(=O)N[C@@H](C)C(=O)N[C@H](C(=O)N[C@@H](CCCCN)C(=O)N[C@@H](CCCCN)C(=O)N[C@@H](Cc1ccc(O)cc1)C(=O)N[C@@H](CC(C)C)C(=O)N[C@@H](CC(N)=O)C(=O)N[C@@H](CO)C(=O)N[C@H](C(=O)N[C@@H](CC(C)C)C(=O)N[C@@H](CC(N)=O)C(N)=O)[C@@H](C)CC)C(C)C [SEQ ID NO: 9, His-Ser-Asp-Aib-Val-Phe-Thr-Asp-Asn-Tyr-Thr-Arg-Leu-Arg-Lys-Gln-Dpg-Ala-Val-Lys-Lys-Tyr-Leu-Asn-Ser-Ile-Leu-Asn-NH2] (H-HSD[Aib]VFTDNYTRLRKQ[Dpg]AVKKYLNSILN-NH2)	15.9 ± 4.5%	28 ± 5.0%	27 ± 3.4%	21 ± 3.6%	16.7 ± 4.1%	13 ± 5.0%	21.5 ± 4.5%	16.7 ± 3.2%	16.7 ± 5.1%	10.5 ± 6.5%	15.5 ± 3.3%	27.8 ± 4.3%	25.6 ± 4.5%	17.4 ± 3.2%	15.1 ± 2.3%	17 ± 2.3%	20 ± 0.0%	18.9 ± 6.0%	17.5 ± 5.5%	13.6 ± 5.6%	Percentage cytotoxicity ([5]; 100 pM): 11.5 ± 5.0%; Percentage cytotoxicity ([5]; 1 nM): 13.7 ± 3.6%; Percentage cytotoxicity ([5]; 10 nM): 26.7 ± 3.5%; Percentage cytotoxicity ([5]; 100 nM): 18.9 ± 6.5%; Percentage cytotoxicity ([5]; 1 μM): 12.5 ± 6.5%; Percentage cytotoxicity ([6]; HuTu80, 100 pM): 14.6 ± 2.7%; Percentage cytotoxicity ([6]; HuTu80, 1 nM): 28.5 ± 3.2%; Percentage cytotoxicity ([6]; HuTu80, 10 nM): 26 ± 5.5%; Percentage cytotoxicity ([6]; HuTu80, 100 nM): 23 ± 6.0%; Percentage cytotoxicity ([6]; HuTu80, 1 μM): 14.6 ± 5.1%
